Experimental data published in paper PMC9653409, “Generative deep learning enables the discovery of a potent and selective RIPK1 inhibitor” (Nature Communications, 2022).

What was measured:
Assay in all cases: Kinase inhibitory activity profiling of RI-962@10 µM (406 kinases, Eurofins)
Assay type in all cases: biochemical
[1] = target: panel of human kinases (kinase named in endpoint) (Homo sapiens, UniProt Q13873); conditions: 10 µM; read-out: Activity (%), BMPR2(h)
Method in brief: (§1)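 Radiometric filter-binding kinase assays: enzyme preincubated 15 min with compound in 8 mM MOPS pH 7.0, 0.2 mM EDTA, 250 μM peptide substrate, 10 mM magnesium acetate, 10 μM [γ-33P]-ATP. Reaction started with Mg/ATP, run 40 min at room temperature, stopped with phosphoric acid; 33P incorporation read by scintillation counting. Other kinases by similar protocols.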

[2] = target: panel of human kinases (kinase named in endpoint) (Homo sapiens, UniProt Q8IZX4); conditions: 10 µM; read-out: Activity (%), TAF1L(h)
Method in brief: as §1

[3] = target: panel of human kinases (kinase named in endpoint) (Homo sapiens, UniProt Q02763, Y897S); conditions: 10 µM; read-out: Activity (%), Tie2(Y897S)(h)
Chain of panel of human kinases (kinase named in endpoint) (Homo sapiens, UniProt Q02763, Y897S) (Q02763 23-1124 Y897S): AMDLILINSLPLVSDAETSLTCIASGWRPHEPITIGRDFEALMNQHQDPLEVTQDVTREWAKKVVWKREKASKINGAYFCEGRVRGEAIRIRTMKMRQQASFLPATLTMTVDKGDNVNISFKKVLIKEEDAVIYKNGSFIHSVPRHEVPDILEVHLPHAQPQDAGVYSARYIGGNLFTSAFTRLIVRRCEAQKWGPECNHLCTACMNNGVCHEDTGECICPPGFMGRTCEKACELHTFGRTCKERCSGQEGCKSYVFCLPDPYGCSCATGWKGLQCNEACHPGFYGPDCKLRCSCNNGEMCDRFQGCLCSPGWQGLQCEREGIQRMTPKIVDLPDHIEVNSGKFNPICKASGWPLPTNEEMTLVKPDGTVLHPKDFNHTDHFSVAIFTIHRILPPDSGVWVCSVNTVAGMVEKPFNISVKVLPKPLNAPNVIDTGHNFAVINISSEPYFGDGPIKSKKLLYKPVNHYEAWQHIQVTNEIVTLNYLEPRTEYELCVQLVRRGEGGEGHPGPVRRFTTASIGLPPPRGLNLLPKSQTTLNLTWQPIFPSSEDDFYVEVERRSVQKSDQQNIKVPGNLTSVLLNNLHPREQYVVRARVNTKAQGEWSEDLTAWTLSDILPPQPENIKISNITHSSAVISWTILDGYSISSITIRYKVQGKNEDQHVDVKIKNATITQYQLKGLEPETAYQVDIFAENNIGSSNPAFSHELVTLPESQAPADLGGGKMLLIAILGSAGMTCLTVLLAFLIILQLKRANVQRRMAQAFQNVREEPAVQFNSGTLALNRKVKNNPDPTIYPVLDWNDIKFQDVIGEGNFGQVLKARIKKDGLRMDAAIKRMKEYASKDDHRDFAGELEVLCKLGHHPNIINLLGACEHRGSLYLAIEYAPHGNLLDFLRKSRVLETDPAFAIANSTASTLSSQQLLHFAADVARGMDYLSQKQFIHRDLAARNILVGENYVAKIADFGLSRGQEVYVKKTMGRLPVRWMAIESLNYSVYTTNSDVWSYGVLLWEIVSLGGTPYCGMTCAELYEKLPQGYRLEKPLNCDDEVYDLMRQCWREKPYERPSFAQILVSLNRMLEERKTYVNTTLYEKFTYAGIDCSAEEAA
Method in brief: as §1

[4] = target: panel of human kinases (kinase named in endpoint) (Homo sapiens, UniProt P07949, V804M); conditions: 10 µM; read-out: Activity (%), Ret(V804M)(h)
Method in brief: as §1

[5] = target: panel of human kinases (kinase named in endpoint) (Homo sapiens, UniProt P00533, T790M); conditions: 10 µM; read-out: Activity (%), EGFR(T790M)(h)
Method in brief: as §1

[6] = target: panel of human kinases (kinase named in endpoint) (Homo sapiens, UniProt Q7L7X3); conditions: 10 µM; read-out: Activity (%), TAO1(h)
Method in brief: as §1

[7] = target: panel of human kinases (kinase named in endpoint) (Homo sapiens, UniProt P00533); conditions: 10 µM; read-out: Activity (%), EGFR(h)
Method in brief: as §1

[8] = target: panel of human kinases (kinase named in endpoint) (Homo sapiens, UniProt O15264); conditions: 10 µM; read-out: Activity (%), SAPK4(h)
Chain of panel of human kinases (kinase named in endpoint) (Homo sapiens, UniProt O15264) (O15264 whole entry): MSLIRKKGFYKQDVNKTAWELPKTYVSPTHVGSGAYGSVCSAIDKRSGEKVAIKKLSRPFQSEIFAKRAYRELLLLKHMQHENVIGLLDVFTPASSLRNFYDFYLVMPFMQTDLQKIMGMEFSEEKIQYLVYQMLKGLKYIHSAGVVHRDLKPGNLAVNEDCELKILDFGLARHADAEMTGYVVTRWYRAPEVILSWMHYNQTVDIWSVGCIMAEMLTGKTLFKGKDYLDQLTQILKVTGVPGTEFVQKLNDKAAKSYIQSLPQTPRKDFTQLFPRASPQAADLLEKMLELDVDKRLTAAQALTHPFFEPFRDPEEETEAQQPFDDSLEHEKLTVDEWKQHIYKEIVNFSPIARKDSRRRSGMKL
Method in brief: as §1

[9] = target: panel of human kinases (kinase named in endpoint) (Homo sapiens, UniProt P05771); conditions: 10 µM; read-out: Activity (%), PKCβI(h)
Method in brief: as §1

[10] = test system: panel of human kinases (kinase named in endpoint); conditions: 10 µM
Method in brief: as §1

[11] = target: panel of human kinases (kinase named in endpoint) (Homo sapiens, UniProt O14965); conditions: 10 µM; read-out: Activity (%), Aurora-A(h)
Method in brief: as §1

[12] = target: panel of human kinases (kinase named in endpoint) (Homo sapiens, UniProt O43318); conditions: 10 µM; read-out: Activity (%), TAK1(h)
Method in brief: as §1

[13] = target: panel of human kinases (kinase named in endpoint) (Homo sapiens, UniProt P10721, V654A); conditions: 10 µM; read-out: Activity (%), cKit(V654A)(h)
Chain of panel of human kinases (kinase named in endpoint) (Homo sapiens, UniProt P10721, V654A) (P10721 26-976 V654A): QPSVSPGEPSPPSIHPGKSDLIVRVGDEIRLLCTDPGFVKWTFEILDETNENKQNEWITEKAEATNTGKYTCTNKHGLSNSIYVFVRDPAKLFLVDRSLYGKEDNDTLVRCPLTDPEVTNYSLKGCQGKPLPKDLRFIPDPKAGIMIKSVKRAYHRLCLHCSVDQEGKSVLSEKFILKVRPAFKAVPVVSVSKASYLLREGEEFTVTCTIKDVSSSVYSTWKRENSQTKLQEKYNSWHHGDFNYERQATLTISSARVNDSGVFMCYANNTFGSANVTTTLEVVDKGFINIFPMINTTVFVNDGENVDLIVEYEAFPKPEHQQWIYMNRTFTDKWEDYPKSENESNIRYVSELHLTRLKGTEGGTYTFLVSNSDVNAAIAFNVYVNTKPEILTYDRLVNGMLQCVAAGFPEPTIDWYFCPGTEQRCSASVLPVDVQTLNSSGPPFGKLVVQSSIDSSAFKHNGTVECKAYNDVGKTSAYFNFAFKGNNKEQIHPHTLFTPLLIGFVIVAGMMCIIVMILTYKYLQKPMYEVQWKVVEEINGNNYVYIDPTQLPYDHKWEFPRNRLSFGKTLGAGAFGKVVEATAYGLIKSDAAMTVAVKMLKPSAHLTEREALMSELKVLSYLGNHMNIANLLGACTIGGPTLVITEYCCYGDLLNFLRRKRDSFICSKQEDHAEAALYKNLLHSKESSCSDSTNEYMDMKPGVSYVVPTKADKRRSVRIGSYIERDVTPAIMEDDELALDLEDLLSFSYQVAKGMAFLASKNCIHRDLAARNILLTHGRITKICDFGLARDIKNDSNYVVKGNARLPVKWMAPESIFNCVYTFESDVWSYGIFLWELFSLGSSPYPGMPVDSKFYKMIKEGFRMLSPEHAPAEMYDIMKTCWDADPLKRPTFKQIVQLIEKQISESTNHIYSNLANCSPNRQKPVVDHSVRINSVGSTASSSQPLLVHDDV
Method in brief: as §1

[14] = target: panel of human kinases (kinase named in endpoint) (Homo sapiens, UniProt P52333); conditions: 10 µM; read-out: Activity (%), JAK3(h)
Method in brief: as §1

[15] = target: panel of human kinases (kinase named in endpoint) (Homo sapiens, UniProt Q9H0K1); conditions: 10 µM; read-out: Activity (%), SIK2(h)
Method in brief: as §1

[16] = target: panel of human kinases (kinase named in endpoint) (Homo sapiens, UniProt P17612); conditions: 10 µM; read-out: Activity (%), PKA(h)
Method in brief: as §1

[17] = target: panel of human kinases (kinase named in endpoint) (Homo sapiens, UniProt Q9NQU5); conditions: 10 µM; read-out: Activity (%), PAK6(h)
Method in brief: as §1

[18] = target: panel of human kinases (kinase named in endpoint) (Homo sapiens, UniProt P53667); conditions: 10 µM; read-out: Activity (%), LIMK1(h)
Method in brief: as §1

[19] = target: panel of human kinases (kinase named in endpoint) (Homo sapiens, UniProt Q15835); conditions: 10 µM; read-out: Activity (%), GRK1(h)
Chain of panel of human kinases (kinase named in endpoint) (Homo sapiens, UniProt Q15835) (Q15835 whole entry): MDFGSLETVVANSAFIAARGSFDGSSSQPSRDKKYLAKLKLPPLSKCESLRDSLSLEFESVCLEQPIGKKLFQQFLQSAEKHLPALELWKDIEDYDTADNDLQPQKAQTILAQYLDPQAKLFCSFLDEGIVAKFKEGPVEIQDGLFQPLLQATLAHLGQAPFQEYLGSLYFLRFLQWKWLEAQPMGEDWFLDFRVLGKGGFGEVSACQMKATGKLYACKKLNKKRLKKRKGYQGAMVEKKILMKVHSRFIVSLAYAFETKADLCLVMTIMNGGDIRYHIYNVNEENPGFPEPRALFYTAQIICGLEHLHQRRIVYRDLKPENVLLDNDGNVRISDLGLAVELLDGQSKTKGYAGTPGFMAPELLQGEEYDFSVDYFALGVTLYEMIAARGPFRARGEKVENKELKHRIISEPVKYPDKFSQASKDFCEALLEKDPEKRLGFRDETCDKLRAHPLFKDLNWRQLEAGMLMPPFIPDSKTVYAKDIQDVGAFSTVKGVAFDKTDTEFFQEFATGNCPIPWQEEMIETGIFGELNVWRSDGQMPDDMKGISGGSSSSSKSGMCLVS
Method in brief: as §1

[20] = target: panel of human kinases (kinase named in endpoint) (Homo sapiens, UniProt Q14289); conditions: 10 µM; read-out: Activity (%), Pyk2(h)
Chain of panel of human kinases (kinase named in endpoint) (Homo sapiens, UniProt Q14289) (Q14289 whole entry): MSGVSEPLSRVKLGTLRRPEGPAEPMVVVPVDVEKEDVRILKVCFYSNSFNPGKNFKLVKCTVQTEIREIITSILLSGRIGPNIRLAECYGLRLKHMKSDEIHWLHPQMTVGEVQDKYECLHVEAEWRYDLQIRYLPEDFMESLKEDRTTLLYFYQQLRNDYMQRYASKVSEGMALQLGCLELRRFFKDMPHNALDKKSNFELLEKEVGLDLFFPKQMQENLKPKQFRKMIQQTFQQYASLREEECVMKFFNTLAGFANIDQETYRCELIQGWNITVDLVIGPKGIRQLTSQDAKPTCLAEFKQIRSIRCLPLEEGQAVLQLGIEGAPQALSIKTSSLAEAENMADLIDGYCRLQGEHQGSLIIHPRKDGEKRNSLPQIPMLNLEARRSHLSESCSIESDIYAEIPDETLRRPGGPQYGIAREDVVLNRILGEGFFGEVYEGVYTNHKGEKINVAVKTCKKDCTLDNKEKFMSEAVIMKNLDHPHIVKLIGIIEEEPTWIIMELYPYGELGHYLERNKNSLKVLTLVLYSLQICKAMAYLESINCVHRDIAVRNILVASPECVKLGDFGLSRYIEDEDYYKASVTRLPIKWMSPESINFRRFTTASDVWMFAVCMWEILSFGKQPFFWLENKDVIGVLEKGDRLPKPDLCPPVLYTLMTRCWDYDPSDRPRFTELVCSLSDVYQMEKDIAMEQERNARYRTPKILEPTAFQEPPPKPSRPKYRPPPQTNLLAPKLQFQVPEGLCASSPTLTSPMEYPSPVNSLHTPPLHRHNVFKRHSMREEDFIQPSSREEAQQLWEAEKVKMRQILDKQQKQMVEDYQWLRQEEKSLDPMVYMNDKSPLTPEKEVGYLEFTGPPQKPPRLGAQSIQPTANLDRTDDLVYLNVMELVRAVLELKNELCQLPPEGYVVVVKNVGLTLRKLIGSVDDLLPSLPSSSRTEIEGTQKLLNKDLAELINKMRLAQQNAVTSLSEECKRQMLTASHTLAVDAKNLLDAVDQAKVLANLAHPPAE
Method in brief: as §1

[21] = target: panel of human kinases (kinase named in endpoint) (Homo sapiens, UniProt Q12851); conditions: 10 µM; read-out: Activity (%), GCK(h)
Chain of panel of human kinases (kinase named in endpoint) (Homo sapiens, UniProt Q12851) (Q12851 whole entry): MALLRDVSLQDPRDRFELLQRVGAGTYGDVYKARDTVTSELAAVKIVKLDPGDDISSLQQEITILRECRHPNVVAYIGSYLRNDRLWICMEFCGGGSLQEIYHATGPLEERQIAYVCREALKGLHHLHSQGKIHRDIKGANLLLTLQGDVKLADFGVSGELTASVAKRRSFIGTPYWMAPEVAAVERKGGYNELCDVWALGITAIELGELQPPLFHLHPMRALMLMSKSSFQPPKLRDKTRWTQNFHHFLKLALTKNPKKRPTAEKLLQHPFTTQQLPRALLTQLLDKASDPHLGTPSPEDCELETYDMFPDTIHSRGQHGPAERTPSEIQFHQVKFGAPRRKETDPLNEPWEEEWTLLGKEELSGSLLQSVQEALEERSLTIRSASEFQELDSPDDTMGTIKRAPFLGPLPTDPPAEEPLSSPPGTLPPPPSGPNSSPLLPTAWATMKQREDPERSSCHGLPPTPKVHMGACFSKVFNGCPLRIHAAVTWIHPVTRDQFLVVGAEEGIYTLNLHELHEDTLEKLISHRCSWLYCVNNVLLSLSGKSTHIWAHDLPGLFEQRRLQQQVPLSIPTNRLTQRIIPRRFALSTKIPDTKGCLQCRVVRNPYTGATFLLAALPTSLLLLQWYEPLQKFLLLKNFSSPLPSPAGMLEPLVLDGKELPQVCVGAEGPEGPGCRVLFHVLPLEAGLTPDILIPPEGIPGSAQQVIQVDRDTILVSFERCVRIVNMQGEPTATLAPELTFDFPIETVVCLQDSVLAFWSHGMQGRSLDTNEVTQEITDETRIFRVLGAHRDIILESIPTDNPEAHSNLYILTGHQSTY
Method in brief: as §1

[22] = target: panel of human kinases (kinase named in endpoint) (Homo sapiens, UniProt Q9HBH9); conditions: 10 µM; read-out: Activity (%), Mnk2(h)
Method in brief: as §1

[23] = target: panel of human kinases (kinase named in endpoint) (Homo sapiens, UniProt Q8WU08); conditions: 10 µM; read-out: Activity (%), STK32A(h)
Method in brief: as §1

[24] = target: panel of human kinases (kinase named in endpoint) (Homo sapiens, UniProt O15146); conditions: 10 µM; read-out: Activity (%), MuSK(h)
Method in brief: as §1

[25] = target: panel of human kinases (kinase named in endpoint) (Homo sapiens, UniProt P04629); conditions: 10 µM; read-out: Activity (%), TrkA(h)
Method in brief: as §1

Structure (SMILES): CC(C)C(=O)Nc1nc2cc(-c3ccc4c(c3)c(C(=O)NC(C)c3ccccc3)cn4C)ccn2n1 (centres unmarked) [RI-962]
- activity at 10 µM [1]: 105%
- activity at 10 µM [2]: 89%
- activity at 10 µM [3]: 69%
- activity at 10 µM [4]: 115%
- activity at 10 µM [5]: 119%
- activity at 10 µM [6]: 81%
- activity at 10 µM [7]: 94%
- activity at 10 µM [8]: 91%
- activity at 10 µM [9]: 120%
- Activity (%), ACTR2(h) [10]: 81%
- Activity (%), CK1(y) [10]: 100%
- Activity (%), MAPK1(h) [10]: 94%
- Activity (%), PKCβII(h) [10]: 87%
- Activity (%), PKG1β(h) [10]: 98%
- activity at 10 µM [11]: 95%
- activity at 10 µM [12]: 90%
- activity at 10 µM [13]: 85%
- activity at 10 µM [14]: 95%
- activity at 10 µM [15]: 101%
- activity at 10 µM [16]: 97%
- activity at 10 µM [17]: 87%
- activity at 10 µM [18]: 97%
- activity at 10 µM [19]: 111%
- activity at 10 µM [20]: 106%
- activity at 10 µM [21]: 83%
- activity at 10 µM [22]: 92%
- activity at 10 µM [23]: 113%
- activity at 10 µM [24]: 52%
- activity at 10 µM [25]: 64%
